The source of these data is US7572819B2, “Compounds which potentiate glutamate receptor and uses thereof in medicine” (Glaxo Group Limited, priority 2004, dated 2009).

The target in the experiment is T1, human GluR2 flip (unedited) AMPA receptor subunit (Homo sapiens, UniProt P42262).
T1 construct: expressed in transfected cells; host or cells: HEK 293 cells, stably expressing or transiently transfected
In words: Calcium influx fluorescence assay (FLUO4, FLIPR). Format: cell-based. The following applies: HEK 293 cells expressing human GluR2 flip (unedited); 100 μM glutamate; peak fluorescence. The protocol:
The ability of the compounds of the invention to potentiate glutamate receptor-mediated response were determined a) by using fluorescent calcium-indicator dyes such as FLUO4 and additionally for some example compounds, b) by measuring glutamate-evoked current recorded from human GluR2 flip unedited HEK293 cells. • a) Calcium Influx Fluorescence Assay
384 well plates were prepared containing confluent monolayer of HEK 293 cells either stably expressing or transiently transfected with human GluR2 flip (unedited) AMPA receptor subunit. These cells form functional homotetrameric AMPA receptors. […]
The cell plate was then transferred into a fluorescence imaging plate based reader [such as the FLIPR384 (Molecular Devices)]. A baseline fluorescence reading was taken over a 10 to 240 second period, and then 10 μL from each plate containing a compound of the invention made up in standard buffer solution (in a concentration range from 100 μM to 10 pM) was added (to give a final concentration in the range 30 μM to 3 pM). The fluorescence was read over 5 minute period. […] The fluoresecence was then read over a 4 minute period. The activities of the compounds of the invention and reference compounds were determined by measuring peak fluorescence after the last addition. […]

T1 sequence (P42262 25-883 isoform P42262-2 limits assumed): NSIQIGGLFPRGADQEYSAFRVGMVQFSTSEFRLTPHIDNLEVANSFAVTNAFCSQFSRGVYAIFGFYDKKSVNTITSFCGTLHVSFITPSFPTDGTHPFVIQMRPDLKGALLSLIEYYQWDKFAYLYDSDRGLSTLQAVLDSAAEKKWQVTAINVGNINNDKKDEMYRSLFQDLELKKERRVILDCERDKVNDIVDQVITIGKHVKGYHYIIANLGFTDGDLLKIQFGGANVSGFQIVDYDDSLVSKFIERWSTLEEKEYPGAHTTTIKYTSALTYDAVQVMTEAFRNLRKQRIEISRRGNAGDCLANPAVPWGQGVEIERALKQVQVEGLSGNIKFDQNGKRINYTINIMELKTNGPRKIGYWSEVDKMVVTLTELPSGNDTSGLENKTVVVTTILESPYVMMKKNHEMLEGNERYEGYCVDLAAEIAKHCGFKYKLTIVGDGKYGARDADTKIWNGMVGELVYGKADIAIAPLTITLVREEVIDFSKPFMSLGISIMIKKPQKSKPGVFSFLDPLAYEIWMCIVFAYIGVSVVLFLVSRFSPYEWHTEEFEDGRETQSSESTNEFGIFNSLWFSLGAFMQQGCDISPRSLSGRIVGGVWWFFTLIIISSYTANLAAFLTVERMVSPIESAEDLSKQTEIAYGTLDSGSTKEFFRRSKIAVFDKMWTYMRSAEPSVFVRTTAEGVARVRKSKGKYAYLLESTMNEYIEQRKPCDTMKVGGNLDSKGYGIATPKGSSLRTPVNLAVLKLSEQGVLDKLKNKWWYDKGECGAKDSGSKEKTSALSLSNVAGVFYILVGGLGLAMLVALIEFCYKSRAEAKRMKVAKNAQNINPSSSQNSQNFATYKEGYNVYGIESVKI

For `CC(C)S(=O)(=O)NC1Cc2ccc(-c3ccsc3)cc2C1` (stereo not shown) [Example 4, N-[5-(3-thienyl)-2,3-dihydro-1H-inden-2-yl]-2-propanesulfonamide], the EC50 was 10 µM.
